The values below come from ChEMBL document CHEMBL1157539, “Thousands of chemical starting points for antimalarial lead identification” (Nature, 2010).

The assay has as its system Plasmodium falciparum. Put plainly: GSK_TCMDC: Inhibition of Plasmodium falciparum 3D7 in whole erythrocytes, using parasite LDH activity as an index of growth. Format: functional, organism-based. The settings on record: Plasmodium falciparum, 3D7.
`Cc1[nH]c2ccc(O)cc2c1C1CCN(CCCCCNC(=O)/C=C/c2ccc(Cl)c(Cl)c2)CC1`: the XC50 was 771 nM.
With `OC(CNCc1ccccc1Oc1ccccc1)c1cc(Br)cs1` (configuration not stated), the XC50 worked out at 1110 nM.
`CC(C)Nc1ccc(Nc2ccnc3cc4ccccc4cc23)cc1` came in with an XC50 of 142 nM.
Compound `O=C(Nc1cc(Cl)ccc1O)c1cnn2c(C(F)(F)F)cc(-c3cccs3)nc12` came in with an XC50 of 859 nM.
`CC(=O)NCCNCc1cccc(C(=O)NCc2cccc(C(F)(F)F)c2)c1` registered an XC50 of 1080 nM.
As for `CCNc1cc(C(=O)N[C@@H](Cc2ccccc2)[C@H](O)CNCCc2ccccc2)cc(N2CCCCS2(=O)=O)c1`, the figure is 936 nM; as for `CN1CCC(N(Cc2ccc(N3CCN(Cc4c[nH]c5ccc(Cl)cc45)CC3)nc2)C2CC2)CC1`, 999 nM; as for `CN(C)CCOc1cc(NC(=O)Nc2ccc(-c3ccccc3)cc2)ccc1I`, 595 nM.
In the case of `CC(C)CN1CCC(N(C)c2cc(NC(=O)c3cccc(F)c3)ccn2)CC1`, the XC50 amounted to 848 nM.
Regarding `Cc1cccc2nc(-c3cccc(-c4ccc(NC(=O)Cc5ccon5)cc4)c3)[nH]c12`, the XC50 stood at 1090 nM.
In turn, `COc1ccc(Cl)cc1N1CCN(CCCNC(=O)c2ccc(-c3nc4cc(Cl)c(F)cc4[nH]3)c(F)c2)CC1` displayed an XC50 of 1110 nM.
Compound `COc1ccc(NCCCNc2ccnc3ccccc23)cc1` displayed an XC50 of 966 nM.
`CC(CCc1ccccc1)NCC(O)c1cccc(C(F)(F)F)c1` (configuration not stated) displayed an XC50 of 709 nM.
Regarding `c1ccn2c(Sc3ncnc4sccc34)ncc2c1`, the XC50 was found to be 663 nM.
The compound `Cc1ccc(-c2nc3cc(C(=O)NC4CCC(N5CCCc6ccc(C#N)cc6C5)CC4)ccc3[nH]2)cc1` (configuration not stated) showed an XC50 of 1360 nM.
The compound `c1ccc(CCNCc2ccc(-c3ccc(CNCc4ccc5c(c4)OCO5)cc3)nc2)cc1` came in with an XC50 of 1250 nM.
Take `N#CC(CC(=O)c1ccc(Cl)cc1)c1cccc(F)c1` (configuration not stated): the XC50 stood at 854 nM.
In turn, `Nc1ncc(-c2ccc3ncccc3c2)c(N)n1` showed an XC50 of 918 nM.
`O=C(Nc1cccc(-c2nn3ccccc3c2-c2ccnc(Nc3ccc(NCCCN4CCOCC4)c(F)c3)n2)c1)c1c(F)cccc1F` showed an XC50 of 259 nM.
Take `Cc1cc(C(=O)CN2C(=O)NC(C)(c3cccc4ccccc34)C2=O)c(C)n1Cc1ccco1` (configuration not stated): the XC50 came out at 626 nM.
As to `N=C1C=C(N)C(=O)c2ccccc21`, the XC50 was 1050 nM.
Compound `Cc1cc(C(=O)CN2C(=O)NC(C)(c3ccc4ccccc4c3)C2=O)c(C)n1Cc1ccco1` (configuration not stated) returned an XC50 of 661 nM.
Compound `Oc1ccc(C=NNC(S)=Nc2cccc3ccccc23)c(O)c1` came in with an XC50 of 1040 nM.
On to `CN(C)CCCNCc1ccc(-c2ccc(F)c(Cl)c2)o1`, for which the XC50 was 802 nM.
As for `CSc1c(CNCCCNc2cc(=O)c3ccccc3[nH]2)[nH]c2ccccc12`, the figure is 1120 nM.
Regarding `CCOc1ccc(-c2nc(NC(=O)Cc3cccc(OC)c3)sc2C)cc1`, the XC50 was found to be 730 nM.
For `N=C(N)Nc1nc(-c2cccc(NC(=O)C(F)(F)F)c2)cs1`, the XC50 worked out at 1050 nM.
Take `Cc1cc(NCC(c2ccccc2)c2ccccc2)nc(NCC2CCCCC2)n1`: the XC50 turned out to be 507 nM.
As for `O=C(Nc1cccc(CN2CCN(C(=O)c3cccc(F)c3)CC2)c1)c1ccco1`, the XC50 came out at 775 nM.
In the case of `Cc1ccc(CN2CCCN(Cc3cccc(NC(=O)c4cc5ccccc5s4)c3)CC2)cc1C` it was 735 nM.
`COc1cc(F)c2ncc(Cl)c(CCN3CCC(NCc4ccc5c(n4)NC(=O)CO5)CC3)c2c1`: the XC50 worked out at 504 nM.
In the case of `CC[C@H]1CN(Cc2ccccc2Br)CC[C@H]1CCCc1ccnc2ccc(O)cc12` it was 1000 nM.
In the case of `COc1ccc2nccc([C@@H](O)CN3CCC(NCc4cnc5c(c4)NC(=O)CS5)C(F)C3)c2c1` (some centres not stated), the XC50 is 769 nM.
The compound `CN(C)CCN(Cc1ccccc1-c1ccc(CNCCc2ccccc2)cc1)C(=O)NC1CCCCC1` registered an XC50 of 906 nM.
Take `COc1ccc(-c2cnc3ccc(N4CCCC4)nn23)cc1OC`: the XC50 turned out to be 772 nM.
In turn, `COc1ccc2nccc([C@H](O)CN3CCC(NCc4nc5cccc(F)c5[nH]4)CC3)c2c1` displayed an XC50 of 705 nM.
Regarding `Fc1ccc2[nH]c(-c3cccc(-c4ccc(CN5CCN(c6cnccn6)CC5)cc4)c3)nc2c1`, the XC50 came to 893 nM.
As for `O=C(Nc1cccc(C(F)(F)F)c1)NC1CCN(c2ccnc3ccccc23)C1` (configuration not stated), the figure is 289 nM.
As to `Cc1cc(=O)c(-c2ccc(Oc3ccc(Cl)cc3Cl)cc2)c(C)[nH]1`, the XC50 turned out to be 841 nM.
Consider `CC(=O)N(C)c1ccc(C(=O)Nc2cccc(-c3cccc(-c4nc5cc(C(F)(F)F)ccc5[nH]4)c3)c2)cc1`, for which the XC50 stood at 314 nM.
As for `CCc1cn2c3c(cc(C(=O)N[C@@H](Cc4cccc(F)c4)[C@H](O)CNC4CCCCC4)cc13)N(C)S(=O)(=O)CC2`, the figure is 29.7 nM.
`CS(=O)(=O)Nc1cccc(-c2cnc3[nH]cc(-c4cccc(CN)c4)c3c2)c1` had an XC50 of 1660 nM.
In the case of `Cc1[nH]c2ccccc2c1C1=CCN(CCCCC23CCCc4cccc(c42)NC3=O)CC1` (configuration not stated) it was 231 nM; in that of `Cc1ccc(S(=O)(=O)N(CCCN2CCN(C)CC2)Cc2csc(-c3ccc(CNCc4ccccc4)cc3)n2)cc1`, 841 nM.
Take `O=C(Nc1cccc(-c2ccc(-c3nc4ccccc4[nH]3)cc2)c1)Nc1ccc2c(c1)OCO2`: the XC50 was 671 nM.
For the compound `Cc1cc2nc(-c3ccc(/C=C/C(=O)NCCc4ccccc4)cc3)[nH]c2cc1C`, the XC50 turned out to be 779 nM.
Compound `CC(C)C[C@H](NC(=O)c1ccc(OCCN2CCOCC2)cc1)C(=O)N[C@H](/C=N/N1CC(=O)NC1=O)CCc1ccccc1` registered an XC50 of 277 nM.
The compound `O=[N+]([O-])c1cccc(CNCC2CCC(CNCc3cccc([N+](=O)[O-])c3)CC2)c1` (configuration not stated) gave an XC50 of 138 nM.
Consider `CCN(CC)CCCNC(=O)/C(=C/C=C/c1cc2cc(Cl)c(Cl)cc2[nH]1)OC`, for which the XC50 came out at 1160 nM.
As for `Cc1cccc(Cl)c1Nc1nnc(-c2cccc(C(=O)NC[C@@H]3CC[C@H]4C[C@@H]3C4(C)C)c2)o1`, the figure is 273 nM.
For `CCNC(=O)Nc1cccc(-c2cccc(-c3nc4cccc(C)c4[nH]3)c2)c1`, the XC50 worked out at 1040 nM.
`Cc1cccn2c(=O)c3cc(C(=O)NCCN4CCOCC4)c(=N)n(CCc4ccccc4)c3nc12` came in with an XC50 of 468 nM.
As for `COc1ccc2nccc([C@@H](O)CN3CCC(NC(=O)/C=C/c4cccc(C)c4)CC3)c2c1`, the figure is 1250 nM; as for `COc1ccc(CCNC(=O)c2cc(C)ccc2O)cc1-c1ccc(C(C)(C)C)cc1`, 482 nM; as for `Cc1ccccc1C1CCN(c2ccc(C(=O)Nc3ccccc3)cn2)CC1`, 327 nM.
In turn, `CCOc1cc(C)ccc1C1CCN(CCCCNC(=O)c2nc(-c3ccc(C(F)(F)F)cc3)[nH]c2C)CC1` returned an XC50 of 729 nM.
As for `Cc1c(CN2CCC(N3CCC(C(=O)NC4CC4)CC3)CC2)[nH]c2c(Cl)cccc12`, the figure is 1190 nM.
As for `O=C(Nc1ccc(C(=O)OCC2CCCCC2)cc1)N[C@@H](Cc1ccc(O)cc1)C(=O)NC1CCN(Cc2ccc(O)cc2)C1` (some centres not stated), the figure is 874 nM; as for `COc1ccc(CNCCCCCCNCCc2ccc(Cl)cc2)cc1OC`, 1390 nM.
On to `COc1ccc2nc3cc(Cl)ccc3c(NCc3ccccc3)c2c1`, for which the XC50 came out at 866 nM.
In the case of `CC(C)(C)OC(=O)NCc1ccc(Nc2nnc(-c3ccc(OCC(=O)NCc4cc(C(F)(F)F)cc(C(F)(F)F)c4)c([N+](=O)[O-])c3)o2)cc1` it was 460 nM; in that of `COc1cccc(CN2Cc3ccccc3OC3(CCN(Cc4c[nH]c5cnccc45)CC3)C2)c1`, 1300 nM.
As for `Cc1ccc(NC(C)C(=O)Nc2ccccc2)cc1S(=O)(=O)N1CCCCCC1` (configuration not stated), the figure is 62.4 nM.
Compound `O=C(NCc1ccc(C(=O)NC2CCCCCC2)cc1)c1ccc(O)c(-c2ccc(Cl)c(Cl)c2)c1` showed an XC50 of 1060 nM.
The compound `O=C(Nc1ccc2ccccc2c1)N(CCCn1ccnc1)Cc1csc(-c2ccc(CNCc3ccccc3)cc2)n1` showed an XC50 of 739 nM.
Regarding `CN(C)CCNc1cc(-c2cccnc2)nc(-c2ccncc2)n1`, the XC50 came to 596 nM.
For the compound `COc1ccc(CN2CCCN(Cc3cccc(C(=O)Nc4ccc(C(C)(C)C)cc4)c3)CC2)cc1`, the XC50 is 891 nM.
`N#Cc1ccc(N2C[C@@H](OCc3ccccc3)C[C@H]2C(=O)NCCC(c2ccccc2)c2ccccc2)c2ccccc12` came in with an XC50 of 856 nM.
The compound `OC(CNCc1ccccc1Oc1ccccc1)c1cccc(C(F)(F)F)c1` (configuration not stated) yielded an XC50 of 713 nM.
The compound `COc1ccc(-c2cccc(NC(=O)c3ccc(C#N)cc3)c2)cc1CN1CCCC1` showed an XC50 of 696 nM.
`Cc1cc(N2CCCC2=O)ccc1-c1ccc(C(=O)N2CCC(Oc3cccc(Cl)c3)CC2)cc1` displayed an XC50 of 427 nM.
As for `Nc1nc(N)c2c(ccc3c2ccn3CCCC(F)(F)F)n1`, the figure is 98 nM; as for `CN(CCCNCc1ccc2ccccc2c1)CCCNCc1ccc2ccccc2c1`, 391 nM; as for `S=C(Nc1ccccc1Cl)NC1CCC(CN2CCC(c3c[nH]c4ccccc34)CC2)CC1` (configuration not stated), 1050 nM.
`NC1CCN(Cc2ccc(-c3cccc(-c4nc5cc(F)ccc5[nH]4)c3)cc2)C1` (configuration not stated) came in with an XC50 of 759 nM.
Compound `CNC(=O)C1Cc2c([nH]c3cc(Cl)ccc23)C2(CCN(CCc3ccccc3)CC2)N1` (configuration not stated) had an XC50 of 934 nM.
For the compound `Cc1cccc(CN2CCCN(Cc3cccc(C(=O)Nc4ccc(C(C)(C)C)cc4)c3)CC2)c1`, the XC50 amounted to 934 nM.
As for `NOCCCCOc1ccccc1`, the figure is 177 nM; as for `Cc1ccc(Oc2c(-c3ccccc3CN3CCCC3CN(C)C)cnn(C)c2=O)cn1` (configuration not stated), 1160 nM; as for `O=C(/C=C/c1ccc(Cl)c(Cl)c1)NCCCCCN1CCC(NC(=O)c2ccc(F)cc2)CC1`, 706 nM.
For the compound `CC(C)CCCC(C)(C)NC[C@@H](O)[C@H](Cc1ccccc1)NC(=O)c1cccc(CCC2CC2)c1`, the XC50 was determined as 796 nM.
In the case of `O=C(NCC1CCN(Cc2cccc(C(F)(F)F)c2)C1)c1cc(-c2cccc(F)c2)cs1` (configuration not stated), the XC50 is 1180 nM.
In turn, `Cc1csc2nc(-c3ccccn3)nc(Nc3ccncn3)c12` gave an XC50 of 786 nM.
Take `O=C(CC1SC(N2N=C(c3cccs3)CC2c2ccccc2)=NC1=O)Nc1ccccc1F` (configuration not stated): the XC50 amounted to 1090 nM.
In the case of `CC(C)Nc1nc(NCCc2c[nH]cn2)nc(NCc2cccc3ccccc23)n1` it was 1010 nM.
With `Cc1nc(C)c(CC(=O)Nc2cccc(-c3cccc(-c4nc5cc(C(F)(F)F)ccc5[nH]4)c3)c2)s1`, the XC50 is 827 nM.
In turn, `Cc1cc(F)ccc1Nc1nc(N(C)c2ccccc2)c2cccc(OCCO)c2n1` registered an XC50 of 795 nM.
